Measurements taken from US5091409A (priority 1990, dated 1992).
Where a name gives a salt, the structure may show the parent alone. Read-outs that look alike come from different tables or passages of the source.

Tests used:
intraocular pressure = settings: cited from earlier work
carbonic anhydrase = carbonic anhydrase (Homo sapiens, UniProt P00918); assay: carbonic anhydrase inhibition (I50) and Ki, methods of Ponticello et al., J. Med. Chem., 30, 591 (1987); assay type: biochemical; settings: for IC50: carbonic anhydrase inhibition
[1] = test system: ocular hypertensive monkey; assay: drop in IOP in the ocular hypertensive monkey (Lee et al., Curr. Eye Res., 4,775-781 (1985)); assay type: in vivo; settings: 16 hours after treatment
[2] = carbonic anhydrase, main value, read-out: Ki
[3] = value in parentheses, hi = more active component of racemic mixture, read-out: Ki (hi)

| IC50 (carbonic anhydrase) [nM] | Ki (carbonic anhydrase; [2]) [nM] | Ki (carbonic anhydrase; [3]) [nM] | SMILES | other results |
| --- | --- | --- | --- | --- |
| – | – | – | CC(C)(C)NC[C@H](O)COc1nsnc1N1CCOCC1 [(S)-1-tert-Butylamino[(4-morpholino-1,2,5-thiadiazol-3-yl)oxy]-2-propanol] | local anesthetic properties (intraocular pressure; advantage over many other β-adrenergic blocking agents, background statement): devoid of local anesthetic properties; unwanted side effects (intraocular pressure): devoid of many unwanted side effects associated with pilocarpine |
| 0.23 | – | – | C=CC[C@H]1C[C@H](NCC)c2cc(S(N)(=O)=O)sc2S1(=O)=O (relative stereo) [Compound 12, trans-6-Allyl-5,6-dihydro-4-ethylamino-4H-thieno[2,3-b]thiopyran-2-sulfonamide-7,7-dioxide hydrochloride] | – |
| 0.8 | 1 | – | CCN[C@H]1C[C@@H](CC)S(=O)(=O)c2sc(S(N)(=O)=O)cc21 [Compound 11] | – |
| 0.5 | 0.3 | – | CCN[C@H]1C[C@H](CC)S(=O)(=O)c2sc(S(N)(=O)=O)cc21 [Compound 10] | – |
| – | – | – | CC[C@@H]1C(=O)OC[C@@H]1Cc1cncn1C [pilocarpine] | effect on intraocular pressure (intraocular pressure; background statement): reduce intraocular pressure |
| – | 7.1 | 2.6 | CC[C@@H]1C[C@H](NC)c2cc(S(N)(=O)=O)sc2S1(=O)=O (relative stereo) [Compound 5] | – |
| 0.21 | 0.4 | – | C=CC[C@@H]1C[C@H](NCC)c2cc(S(N)(=O)=O)sc2S1(=O)=O [Compound 13, cis-6-Allyl-5,6-dihydro-4H-4-ethylaminothieno[2,3-b]thiopyran-2-sulfonamide-7,7-dioxide hydrochloride] | drop in IOP [1]: 9.8 mmHg |
| – | – | – | CCC[C@H]1C[C@H](NCC)c2cc(S(N)(=O)=O)sc2S1(=O)=O.Cl [Compound 1, (S,S) (-)5,6-Dihydro-4-ethylamino-6-(n-propyl)-4H-thieno[2,3-b]thiopyran-2-sulfonamide-7,7-dioxide hydrochloride] | drop in IOP [1]: 11.3 mmHg |
| – | – | – | CNC(=O)Oc1ccc2c(c1)[C@]1(C)CCN(C)[C@@H]1N2C [physostigmine] | effect on intraocular pressure (intraocular pressure; background statement): reduce intraocular pressure |
| – | – | – | CCN[C@H]1C[C@H](C)S(=O)(=O)c2sc(S(N)(=O)=O)cc21 [Compound 8] | drop in IOP [1]: 5.6 mmHg |
| – | 2.6 | 0.13 | CCN[C@H]1C[C@@H](CC(C)C)S(=O)(=O)c2sc(S(N)(=O)=O)cc21 (relative stereo) [Compound 14] | – |
| 0.15 | 0.23 | – | CCCN[C@H]1C[C@H](CCC)S(=O)(=O)c2sc(S(N)(=O)=O)cc21 [Compound 3] | – |
| – | 2.1 | 0.85 | CCC[C@H]1C[C@H](NC)c2cc(S(N)(=O)=O)sc2S1(=O)=O (relative stereo) [Compound 6] | – |
| – | 3.6 | 1.8 | CC[C@H]1C[C@H](NC)c2cc(S(N)(=O)=O)sc2S1(=O)=O (relative stereo) [Compound 4] | – |
| – | 2.8 | 0.64 | CCC[C@@H]1C[C@H](NC)c2cc(S(N)(=O)=O)sc2S1(=O)=O (relative stereo) [Compound 7] | – |
